Laboratory results: US7951778B2, “Use of compounds having the biological activity of vasoactive intestinal peptide for the treatment of sarcoidosis” (mondoBIOTECH AG, priority 2002, dated 2011)

What was measured:
Assay type in all cases: in vivo, human
[1] = test system: patient with severe sarcoidosis stadium 3 and secondary pulmonary hypertension; test: Hemodynamic parameters by right heart catheterization before and after 12 weeks VIP inhalation; details: VIP inhalation 200 μg per day
Protocol: (§1) A patient with severe sarcoidosis stadium 3 and secondary pulmonary hypertension was under therapy with cortocosteroids, furosemid, oxygen and an anticoagulant. Right heart catheterization (Swan-Ganz, Baxter, Irvine, Calif., USA) was performed to measure mean pulmonary artery pressure (mPAP), cardiac output (CO), mean arterial pressure (MAP), pulmonary capillary wedge pressure (PCWP) mixed venous oxygen saturation (SvO2%) and systemic arterial oxygen pressure (PaO2%) for and after treatment with VIP inhalation (200 μg in 12 ml 0.9% NaCl per day, 4×3 ml per inhalation) for 12 weeks. FEV1 (forced expiratory volume in one second), FVC (forced vital capacity), TLC (total lung capacity), AaDO2 (arterial-alveolar oxygen difference) of sarcoidosis patient is measured according to standard methods for and after treatment with VIP (200 μg in 12 ml 0.9% NaCl per day) for 12 weeks. VIP was inhaled for 12 weeks via the MicroDrop Master Jet (MPV, Truma, Germany) using a particle size of 3 μm to provide alveolar deposition of the substance.
(§2) Hemodynamic and lung function parameters of the sarcoidosis patient before and after the treatment with VIP for 12 weeks are summary in Table 2.

[2] = test system: patient with severe sarcoidosis stadium 3 and secondary pulmonary hypertension; test: Lung function parameters before and after 12 weeks VIP inhalation; details: after treatment, VIP inhalation 200 μg per day
Protocol: as §1, §2

[3] = test system: patient with severe sarcoidosis stadium 3 and secondary pulmonary hypertension; test: 6-minutes walk test
Protocol: as §1
In the 6-minutes walk test, the patient improved from 210 meters before treatment to 350 meters after the treatment

## His-Ser-Asp-Ala-Val-Phe-Thr-Asp-Asn-Tyr-Thr-Arg-Leu-Arg-Lys-Gln-Met-Ala-Val-Lys-Lys-Tyr-Leu-Asn-Ser-Ile-Leu-Asn [VIP]
[1]; after treatment, before treatment 2.1
  CI: 2.7
[1]; after treatment, before treatment 3.9
  CO (cardiac output): 4.9
[1]; after treatment, before treatment 47.0
  PaO2 (systemic arterial oxygen pressure): 54.0
[1]; after treatment, before treatment 49.4
  SvO2 (mixed venous oxygen saturation): 53.0
[1]; after treatment, before treatment 55.0
  PaCO2: 52.0
[1]; after treatment, before treatment 83.2
  SaO2: 88.0
[1]; after treatment, before treatment 84.0
  mAP (mean arterial pressure): 98.0
[1]; first PCWP line of Table 2, after treatment, before treatment 10
  PCWP (pulmonary capillary wedge pressure): 10
[1]; first PVR line of Table 2, after treatment, before treatment 923
  PVR: 359
[1]; first mPAP line of Table 2, after treatment, before treatment 55
  mPAP (mean pulmonary artery pressure): 32
[1]; second PCWP line of Table 2, after treatment, before treatment 6.0
  PCWP (pulmonary capillary wedge pressure): 7.0
[1]; second PVR line of Table 2, after treatment, before treatment 985.0
  PVR: 313.0
[1]; second mPAP line of Table 2, after treatment, before treatment 54.0
  mPAP (mean pulmonary artery pressure): 26.0
[2]; before treatment 1.2
  FEV1 (forced expiratory volume in one second): 1.1 L
[2]; before treatment 1.4
  FVC (forced vital capacity): 1.3
[2]; before treatment 2.3
  TLC (total lung capacity): 2.7
[2]; before treatment 39.0
  AaDO2 (arterial-alveolar oxygen difference): 37.0
[3]; after the treatment with VIP for 12 weeks, 210 meters before treatment
  6-minutes walk test distance: 350 meters
[3]; after treatment, VIP inhalation 200 μg per day, 12 weeks, before treatment 210
  6-Min.WT: 350
